Test system: 7D4 mAb (mouse monoclonal anti-prometryn antibody)
Assay: ic-ELISA cross-reactivity of the 7D4 mAb with triazines
Format: binding
Conditions: for IC50: ic-ELISA, analyte 1000-15.625 and 0 ng/mL; for Cross-Reactivity: relative to prometryn = 100%
Method: The ic-ELISA method was used to screen the best-performing fusion mouse sera. They were used to establish the standard curve of antibodies by detecting the supernatant of positive cells. The buffer required for ic-ELISA was the same as previously reported. The specific steps of the operation are as follows: (1) The coated antigen was added to the microplate by diluting it with the required coating solutions (CBS, pH 9.6, 0.05 mol/L). Each well contained 100 µL, which was incubated at 37 °C for three h before being washed three times with washing buffer (PBST, PBS containing 0.1% Tween-20). (2) With sample dilution buffer (PBSTG, PBST containing 0.1% gelatin), the standard prometryn sample and the antiserum/antibody from mice were diluted to the required concentration. The microplate was incubated for 30 min at 37 °C with 50 µL of diluted antiserum or antibody and standard samples of various concentrations. PBST was used three times to wash the dishes. (3) Then, 100 µL of PBSTG-diluent IgG HRP (labeled goat anti-mouse IgG with HRP) was added to each well. After 30 min at 37 °C, the plate was cleaned three times with PBST. (4) Each well was incubated for 15 min in the dark at 25 °C with 100 µL of TMB color developing solution. To stop the reaction, 50 µL of the hydrochloric acid solution was added to each well. The absorbance at OD450 nm was measured with a TECAN Infinite M200 PRO microplate reader from Männedorf, Switzerland.
The ic-ELISA method was used to determine the ideal antibody and antigen mix. The coating antigen and antibody concentration used in the experiment was 1 mg/mL. The dilution multiples of the coating were 1 × 10^3, 2 × 10^3, 4 × 10^3, and 8 × 10^3. The prometryn standard was 1000 ng/mL. The best concentration combination of antigen and antibody was selected to establish the standard curve of the antibody. Prometryn standards were diluted to 1000, 500, 250, 125, 62.5, 31.25, 15.625, 7.8125, 3.90625, and 0 ng/mL, with PBSTG for subsequent ic-ELISA experiments. The standard curve was determined by ic-ELISA. […] Each measured OD value in the curve is the average of three independent repeats. The 7D4 mAb’s inhibition rate was well linearly correlated with the prometryn concentration. […] The 7D4 mAb type was identified as IgG1 using a mouse antibody isotyping kit from Sigma®, St. Louis, MO, USA.
Eleven triazine herbicides were selected to determine their cross-reactivity with 7D4 mAb. […] The cross-reaction rate with the other seven triazines was less than 1%. The hybridoma cell line 7D4 screened in this study can specifically recognize prometryn. […] The cross-reaction rate may vary depending on the immunoassay format and the competitive hapten preparation used.

| SMILES | IC50 | Cross-Reactivity | Cross-Reactivity (listed as ametryn) | Cross-Reactivity (listed as desmetryn) | Cross-Reactivity (listed as terbumeton) |
| --- | --- | --- | --- | --- | --- |
| CCNc1nc(NC(C)C)nc(SC)n1 [Ametryn] | 0.011221 µg/mL | 34.77% | 34.77% | – | – |
| CCNc1nc(Cl)nc(NC(C)C)n1 [Atrazine] | >1 µg/mL | <0.39% | – | – | – |
| CNc1nc(NC(C)C)nc(SC)n1 [Desmetryn] | 0.021566 µg/mL | 18.09% | – | 18.09% | – |
| COc1nc(NC(C)C)nc(NC(C)C)n1 [Prometon] | >1 µg/mL | <0.39% | – | – | – |
| CC(C)Nc1nc(Cl)nc(NC(C)C)n1 [Propazine] | 0.398011 µg/mL | 0.98% | – | – | – |
| CCNc1nc(Cl)nc(NCC)n1 [Simazine] | >1 µg/mL | <0.39% | – | – | – |
| CCNc1nc(NCC)nc(SC)n1 [Simetryn] | >1 µg/mL | <0.39% | – | – | – |
| CCNc1nc(NC(C)(C)C)nc(OC)n1 [Terbumeton] | 0.051091 µg/mL | 7.64% | – | – | 7.64% |
| CCNc1nc(Cl)nc(NC(C)(C)C)n1 [Terbuthylazine] | >1 µg/mL | <0.39% | – | – | – |
| CCNc1nc(NC(C)(C)C)nc(SC)n1 [Terbutryn] | >1 µg/mL | <0.39% | – | – | – |

— article PMC9855386, “Obtaining a Monoclonal Antibody against a Novel Prometryn-Like Hapten and Characterization of Its Selectivity for Triazine Herbicides” (Biosensors, 2022)
